Test results published in patent US10160948B2, “Pluripotent embryonic-like stem cells, compositions, methods and uses thereof” (ABT HOLDING COMPANY, priority 1999, dated 2018).

How the values were obtained:
[1] = tested on: pluripotent stem cells; assay: Proliferation and phenotypic responses to bioactive factors: pluripotent cells; type: cell-based
Text: (§1) Having access to mixed populations of progenitor stem cells, progenitor stem cell clones, and pluripotent stem cell clones permits one to address the influence of various bioactive factors (e.g. recombinant growth factors, purified compounds, and novel inductive factors) on the growth characteristics and phenotypic expression of these stem cells.
(§2) Cryopreserved cells are thawed and plated in MSC-1 at 5, 10, or 20×10^3 cells per well of gelatinized 24-well plates following the standard protocol. Twenty-four hours after initial plating the medium is changed to testing medium (TM) 1 to 6 (TM-1, TM-2, TM-3, TM-4, TM-5, or TM-6). TM-1 to TM-4 consist of Ultraculture (cat. no. 12-725B, lot. nos. OMO455 [TM-1], 1M1724 [TM-2], 2M0420 [TM-3], or 2M0274 [TM-4], Bio-Whittaker, Walkersville, Md.), medium (EMEM or Opti-MEM 0.01 mM β-mercaptoethanol), and 1% (v/v) antibiotic-antimycotic, pH 7.4. TM-5 consists of 98% (v/v) medium, 1% (v/v) HS, and 1% (v/v) antibiotic-antimycotic, pH 7.4. TM-6 consists of 98.5% (v/v) medium, 0.5% (v/v) HS, and 1% (v/v) antibiotic-antimycotic, pH 7.4. […] Four testing media (TM#'s 1-4), each containing various concentrations of Ultraculture, were used as. […] The four Ultraculture-based testing media were: TM-1=15% (v/v) Ultraculture (Lot no. OMO455): 84% (v/v) medium: 1% (v/v) antibiotics; TM-2=15% (v/v) Ultraculture (Lot no. 1M1724): 84% (v/v) medium: 1% (v/v) antibiotics; TM-3=50% (v/v) Ultraculture (Lot no. 2M0420): 49% (v/v) medium: 1% (v/v) antibiotics; and TM-4=75% (v/v) Ultraculture (Lot no. 2M0274): 24% (v/v) medium: 1% (v/v) antibiotics. Pre-incubation for 24 hr in testing medium alone is used to wash out any potential synergistic components in the MSC-1 medium. Twenty-four hours later the testing medium is changed to one of the following. For controls, TM-1 to TM-6 alone is used. To identify clones of progenitor cells, the medium is replaced with TM-1 to TM-6 containing 2 μg/ml insulin (Sigma), an agent that accelerates the appearance of phenotypic expression markers in progenitor cells (TABLE 12). To identify clones of pluripotent cells, the medium is replaced with TM-1 to TM-6 containing 10^−10 to 10^−6 M dexamethasone (Sigma), a general non-specific lineage-inductive agent (TABLE 13). Control and treated cultures are propagated for an additional 30-45 days with medium changes every other day. Four culture wells are used per concentration per experiment. During the 0-45 day time period the cultures are examined subjectively for changes in morphological characteristics on a daily basis. Alterations in phenotypic expression are correlated with the days of treatment and associated insulin or dexamethasone concentrations. The experiment is then repeated utilizing these parameters to confirm objectively the phenotypic expression markers using established histological, functional/histochemical, ELICA/flow cytometry, and molecular assays (TABLE 13).

[2] = tested on: progenitor stem cells; assay: Proliferation and phenotypic responses to bioactive factors: progenitor cells; type: cell-based
Text: as §1, §2

[3] = presence and approximate distribution of differentiated phenotypes within the culture wells

insulin
Proliferation, Pluripotent: number of times the agent increased the DNA content per well versus its respective control [1]: 1 times | activity on pluripotent and progenitor stem cells, in words ([1]; pluripotent and progenitor cells): stimulated lineage-progression in all progenitor cells, but had no measurable effect on pluripotent cells | Phenotypic Expression, Pluripotent [1, 3]: 0 | Proliferation, Progenitor: number of times the agent increased the DNA content per well versus its respective control [2]: 2 times | Phenotypic Expression, Progenitor [2, 3]: All+++
